# Measured values from PMC8840081, “Phenylalanine-Based AMPA Receptor Antagonist as the Anticonvulsant Agent with Neuroprotective Activity—In Vitro and In Vivo Studies” (Molecules, 2022).
# Legend:
# [1] = ferric reducing antioxidant power (FRAP) assay; conditions: % of ascorbic acid activity; compounds and AA at 1 mM
# Experimental: The total antioxidant potential of aryl-substituted phenylalanine derivatives was determined using FRAP assay. The FRAP reagent was prepared first by mixing acetate buffer (300 mM, pH 3.6), a solution of 10 mM TPTZ (2,4,6-tripyridyl-s-triazine, Sigma-Aldrich, Inc., St. Louis, MO, USA) in 40 mM HCl and 20 mM of iron (III) chloride hexahydrate (FeCl3 × 6H2O, Chempur, Piekary Śląskie, Poland) at 10:1:1 (v/v/v). The FRAP reagent (190 μL) and 1 mM of tested compound (10 μL) was added next to each well, mixed and incubated for 30 min. The absorbance was measured using a microplate reader EnSpire (PerkinElmer, Waltham, MA USA) at 593 nm. AA (1 mM, AMARA, Kraków, Poland) was used as the reference antioxidant. The results were expressed as % of ascorbic acid activity (%AAA). Analyses were performed in triplicate. • ORAC-FL
# [2] = oxygen radical absorbance capacity fluorescent (ORAC-FL) assay; conditions: Trolox equivalent, calculated at 5 µM of compounds and Trolox
# Experimental: The ORAC-FL was performed according to procedure described in the literature. The reagents used in this assay, TX, fluorescein and 2,2′-azobis(2-amidinopropane) dihydrochloride (AAPH), were purchased from Sigma-Aldrich, Inc., St. Louis, MO, USA. The prepared ORAC-FL reagent consisted of 0.3 μM of fluorescein and 100 µM of AAPH dissolved in PBS buffer. The compounds and the reference antioxidant TX were tested at the concentration 2.5 µM and the results were compared to the blank in which no antioxidant was present. The assays were performed in black 96-well plates. The fluorescence readings were taken by a microplate reader EnSpire (PerkinElmer, Waltham, MA, USA) every minute for a duration of 240 min. The excitation wavelength was 485 nm and the emission wavelength was 520 nm. The area under the fluorescence decay curve (AUC) was calculated next by GraphPad Prism™ software (version 5.01, San Diego, CA, USA). All measurements were performed in triplicate. The TX equivalent (TE) was calculated next using the following Equation (1):TE = [(AUCsample − AUCblank)/(AUCTX − AUCblank)] × [CTX/Csample](1)
# native AMPA receptors = conditions: cited from earlier work; for Ki / IC50: native AMPA receptors, rat brain membranes, mean of three experiments; for Ki: read-out: [3H]AMPA Ki; for IC50: read-out: [3H]AMPA IC50 (footnote 4: IC50 values)
# [3] = tested on: IMR-32 neuroblastoma cells; test: neuroprotection against 6-OHDA-induced LDH release; type: cell-based, human; conditions: IMR-32, compound 50 µM, 1 h pretreatment, 200 µM 6-OHDA, 24 h
# Experimental: (§1) All cell culture protocols and assay conditions were applied as we reported previously. SH-SY5Y (ATCC® CRL-2266™) cell line was purchased from ATCC (Manassas, VA, USA). IMR-32 (ATCC® CCL-127™) cell line was kindly provided by the Department of Oncogenomics, Academisch Medisch Centrum, Amsterdam, Holland. Before each test SH-SY5Y or IMR-32 cells were seeded in 96-well plates with transparent bottom at a concentration of 2.5 × 10^4 cells/well in 100 μL of respective cell culture medium and cultured for 24 h to reach 70% confluence. • Cell Viability
# (§2) CytoTox-ONE™ Homogeneous Membrane Integrity Assay, which based on the LDH release, was purchased from Promega (Madison, WI, USA). SH-SY5Y or IMR-32 cells were seeded in 96-well white plates with transparent bottom. For neuroprotective studies, the cells were preincubated first for 1 h with compound 1, 8 or reference antioxidants AA, TX (all at the concentration of 50 μM) and next the neurotoxin 6-OHDA (Sigma-Aldrich, Inc., St. Louis, MO, USA) was added at final concentration of 50 μM (SH-SY5Y assay) or 200 µM (IMR-32 assay). After 24 h of incubation, the CytoTox-ONE™ was added to each well and the cells were incubated next for 10 min at room temperature. The fluorescence was measured using a microplate reader EnSpire (PerkinElmer, Waltham, MA, USA) with an excitation wavelength of 560 nm and an emission wavelength of 590 nm. All measurements were performed in triplicate and results are shown as mean ± SD. The similar studies were also performed with SH-SY5Y cells injured by 100 μM of 6-OHDA (Figure S1, Supporting Materials). • ROS Assay
# [4] = tested on: SH-SY5Y neuroblastoma cells; test: neuroprotection against 6-OHDA-induced LDH release; type: cell-based, human; conditions: compound 50 µM
# Experimental: as §1, §2
# [5] = 1 h pretreatment, 50 µM 6-OHDA, 24 h
Structure (SMILES),FRAP (%AAA) [1],ORAC (TE) [2],Ki (native AMPA receptors),selectivity over NMDA and KA receptors (native AMPA receptors),IC50 (native AMPA receptors),6-OHDA-induced release of LDH (neuroprotection) [3],6-OHDA-induced release of LDH (neuroprotection) ([4]; 100 µM 6-OHDA),"6-OHDA-induced release of LDH (neuroprotection) [4, 5]"
NC(Cc1ccc(Cl)c(-c2cccc(O)c2)c1)C(=O)O (centres unmarked) [Compound 13],24.08 %AAA,2.86 TE,9.2 µM,–,–,–,–,–
NC(Cc1cc(-c2cccc(O)c2)c(Cl)c([N+](=O)[O-])c1)C(=O)O (centres unmarked) [Compound 18],6.29 %AAA,1.34 TE,3.1 µM,high selectivity,–,–,–,–
NC(Cc1cc(Cl)c(O)c(-c2cccc(O)c2)c1)C(=O)O (centres unmarked) [Compound 3],311.56 %AAA,4.61 TE,7.9 µM,–,–,–,–,–
NC(Cc1cc(-c2cncc(O)c2)c(Cl)c([N+](=O)[O-])c1)C(=O)O (centres unmarked) [Compound 2],691.21 %AAA,3.15 TE,2 µM,high selectivity,–,–,–,–
NC(Cc1cc(-c2ccc(O)cc2)c(Cl)c([N+](=O)[O-])c1)C(=O)O (centres unmarked) [Compound 21],2.76 %AAA,2.56 TE,23 µM,–,–,–,–,–
Nc1c(Cl)cc(CC(N)C(=O)O)cc1-c1cccc(O)c1 (centres unmarked) [Compound 14],23.80 %AAA,4.75 TE,10 µM,–,–,–,–,–
NC(Cc1cc(Cl)c(Cl)c(-c2ccccc2O)c1)C(=O)O (centres unmarked) [Compound 16],10.32 %AAA,1.54 TE,–,–,85 µM,–,–,–
NC(Cc1ccc(Cl)c(-c2ccc(O)cc2)c1)C(=O)O (centres unmarked) [Compound 17],9.13 %AAA,1.96 TE,65 µM,–,–,–,–,–
"Cc1c(C)c2c(c(C)c1O)CCC(C)(C(=O)O)O2 (centres unmarked) [TX, Trolox, reference compound]",–,–,–,–,–,no statistically significant neuroprotective effect,neuroprotective effect was not observed,no statistically significant neuroprotective effect
NC(Cc1cc(Cl)c(Cl)c(-c2ccc(O)cc2)c1)C(=O)O (centres unmarked) [Compound 15],13.70 %AAA,1.45 TE,–,–,33 µM,–,–,–
NC(Cc1ccc([N+](=O)[O-])c(-c2cccc(O)c2)c1)C(=O)O (centres unmarked) [Compound 10],32.04 %AAA,1.43 TE,21 µM,–,–,–,–,–
NC(Cc1ccc([N+](=O)[O-])c(-c2ccc(O)cc2)c1)C(=O)O (centres unmarked) [Compound 20],4.41 %AAA,1.62 TE,64 µM,–,–,–,–,–
NC(Cc1cc(Cl)c(Cl)c(-c2cc(O)cc(O)c2)c1)C(=O)O (centres unmarked) [Compound 11],28.90 %AAA,4.18 TE,–,–,16 µM,–,–,–
Nc1ccc(CC(N)C(=O)O)cc1-c1cccc(O)c1 (centres unmarked) [Compound 6],67.35 %AAA,6.09 TE,9.1 µM,–,–,–,–,–
NC(Cc1cc(-c2cccc(O)c2)cc([N+](=O)[O-])c1)C(=O)O (centres unmarked) [Compound 9],43.43 %AAA,4.67 TE,8.2 µM,–,–,–,–,–
COc1c(Cl)cc(CC(N)C(=O)O)cc1-c1cccc(O)c1 (centres unmarked) [Compound 22],2.76 %AAA,1.38 TE,> 100 µM,–,–,–,–,–
Nc1c(-c2cccc(O)c2)cc(CC(N)C(=O)O)cc1[N+](=O)[O-] (centres unmarked) [Compound 12],24.93 %AAA,4.27 TE,14 µM,–,–,–,–,–
"O=C1O[C@H]([C@@H](O)CO)C(O)=C1O [AA, ascorbic acid, reference compound]",–,–,–,–,–,no statistically significant neuroprotective effect,neuroprotective effect was not observed,no statistically significant neuroprotective effect
NC(Cc1cc(Cl)cc(-c2ccc(O)cc2)c1)C(=O)O (centres unmarked) [Compound 7],49.39 %AAA,3.29 TE,46 µM,–,–,–,–,–
NC(Cc1cc(Cl)c(Cl)c(-c2ccc(O)c(O)c2)c1)C(=O)O (centres unmarked) [Compound 4],177.23 %AAA,4.02 TE,–,–,12 µM,–,–,–
NC(Cc1cccc(-c2cccc(O)c2)c1)C(=O)O (centres unmarked) [Compound 19],4.94 %AAA,1.96 TE,–,–,9.9 µM,–,–,–
NC(Cc1cc(-c2ccc(O)cc2)cc([N+](=O)[O-])c1)C(=O)O (centres unmarked) [Compound 5],96.32 %AAA,4.32 TE,21 µM,–,–,–,–,–
